Reference: patent US9834563B2 (Merck Sharp & Dohme Corp., priority 2013, dated 2017)

Columns and labels:
Human GPR40 [1] = target: T1, Human GPR40 (Homo sapiens, UniProt O14842); test: Inositol phosphate turnover (IP1) assay in HEK cells stably expressing human GPR40; assay type: cell-based; set-up: expressed in transfected cells; conditions: HEK cells stably expressing human GPR40, 3H-inositol labeling, 60 min compound incubation
Protocol: (§1) Human and mouse GPR40 stable cell-lines were generated in CHO cells stably expressing NFAT BLA (Beta-lactamase). A human GPR40 stable cell-line was generated in HEK cells stably expressing the aequorin expressing reporter. The expression plasmids were transfected using lipofectamine, LIFE TECHNOLOGIES (Carlsbad, Calif.), following manufacturer's instructions. Stable cell-lines were generated following drug selection.
The assay is performed in a 96-well format. HEK cells stably expressing human GPR40 are plated to be 60-80% confluent within 72 h. After 72 h, the plates are aspirated and the cells washed with inositol-free DMEM (ICN). The wash media is replaced with 150 μL of 3H-inositol labeling media (inositol-free media containing 0.4% human albumin or 0.4% mouse albumin, 1× pen/strep antibiotics, glutamine, 25 mM HEPES to which is added 3H-myo-inositol NEN #NET114A 1 mCi/mL, 25 Ci/mmol diluted 1:150 in loading media with a final specific radioactivity of 1 μCi/150 μL). Alternatively, the human and mouse albumin can be added after the overnight labeling step before the addition of LiCl.
The assay is typically run the next day after 18 h labeling. On the day of the assay, 5 μL of 300 mM LiCl is added to all wells and incubated at 37 degrees for 20 min. 0.75 μL of 200× compounds are added and incubated with the cells for 60 min at 37 degrees. The media is then aspirated off and the assay terminated with the addition of 60 μL 10 mM formic acid. The cells are lysed for 60 min at room temperature. 15-30 μL of lysate is mixed with 70 μL/1 mg YSi SPA beads AMERSHAM (United Kingdom) in clear bottom Isoplates. The plates are shaken for 2 h at room temperature. Beads are allowed to settle and the plates are counted in the Wallac MICROBETA instrument. The activities of the compounds in the examples have EC50 (effective concentration of compound to afford 50% of the maximum observed […]) values listed in Table I.

Human GPR40 [2] = target: T1, Human GPR40; test: FLIPR assay: agonist-induced calcium mobilization in GPR40/CHO NFAT BLA cells; assay type: cell-based; set-up: expressed in transfected cells; host or cells: CHO cells stably expressing NFAT BLA (beta-lactamase)
Source text: as §1
FLIPR (Fluorimetric Imaging Plate Reader, Molecular Devices) assays were performed to measure agonist-induced calcium mobilization of the stable clones. For the FLIPR assay, one day before assay, GPR40/CHO NFAT BLA cells were seeded into black-wall-clear-bottom 384-well plates (Costar) at 1.4×10e4 cells/20 μL medium/well. The cells were incubated with 20 μl/well of the assay buffer (HBSS, 0.1% BSA, 20 mM HEPES, 2.5 mM probenecid, pH 7.4) containing 8 μM fluo-4, AM, 0.08% pluronic acid at room temperature for 100 minutes. Fluorescence output was measured using FLIPR. Compounds were dissolved in DMSO and diluted to desired concentrations with assay buffer. 13.3 μL/well of compound solution was added. The activities of the compounds in the examples have EC50 (effective concentration of compound to afford 50% of the maximum observed fluorescence) values listed in Table I.

T1 sequence (O14842 whole entry): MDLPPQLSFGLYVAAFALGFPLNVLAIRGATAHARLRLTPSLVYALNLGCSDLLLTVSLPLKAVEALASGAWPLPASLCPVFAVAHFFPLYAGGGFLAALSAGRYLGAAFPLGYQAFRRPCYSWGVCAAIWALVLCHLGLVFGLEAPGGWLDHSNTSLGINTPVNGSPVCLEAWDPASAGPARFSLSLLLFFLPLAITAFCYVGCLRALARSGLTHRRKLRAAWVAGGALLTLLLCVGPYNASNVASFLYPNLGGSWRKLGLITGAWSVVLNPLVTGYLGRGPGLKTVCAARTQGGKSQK

Row | SMILES | EC50 (Human GPR40 [1]) | EC50 (Human GPR40 [2])
1 | Cc1nc(OCCCS(C)(=O)=O)ccc1-c1ccc(F)c(COc2ccc3c(c2)C[C@H]2[C@H](C(=O)O)[C@@H]32)c1 [Example 1, (1S,1aS,6aR)-4-[(2-fluoro-5-{2-methyl-6-[3-(methylsulfonyl)propoxy]pyridin-3-yl}benyzyl)oxy]-1,1a,6,6a-tetrahydrocyclopropa[a]indene-1-carboxylic acid] | 0.0073 µM | 0.046 µM
2 | Cc1nc(OC2CCS(=O)(=O)CC2)ccc1-c1ccc(F)c(COc2ccc3c(c2)C[C@H]2[C@H](C(=O)O)[C@@H]32)c1 [Example 2, (1S,1aS,6aR)-4-[(5-{6-[(1,1-dioxidotetrahydro-2H-thiopyran-4-yl)oxy]-2-methylpyridin-3-yl)-2-fluorobenzyl]oxy}-1,1a,6,6a-tetrahydrocyclopropa[a]indene-1-carboxylic acid] | 0.0185 µM | 0.0702 µM
3 | Cc1nc(N2CCC(S(C)(=O)=O)CC2)ccc1-c1cccc(COc2ccc3c(c2)C[C@H]2[C@H](C(=O)O)[C@@H]32)c1 [Example 3, (1S,1aS,6aR)-4-((3-(2-Methyl-6-(4-(methylsulfonyl)piperidin-1-yl)pyridin-3-yl)benzyl)oxy)-1,1a,6,6a-tetrahydrocyclopropa[a]indene-1-carboxylic acid] |  | 0.0599 µM
4 | Cc1cc(OCCCS(C)(=O)=O)nc(C)c1-c1cccc(COc2ccc3c(c2)C[C@H]2[C@H](C(=O)O)[C@@H]32)c1 [Example 4, (1S,1aS,6aR)-4-[(3-{2,4-dimethyl-6-[3-(methylsulfonyl)propoxy]pyridin-3-yl}benzyl)oxy]-1,1a,6,6a-tetrahydrocyclopropa[a]indene-1-carboxylic acid] | 0.015 µM | 0.0891 µM
5 | Cc1cc(OCCCS(C)(=O)=O)nc(C)c1-c1ccc(F)c(COc2ccc3c(c2)C[C@H]2[C@H](C(=O)O)[C@@H]32)c1 [Example 6, 4-{2-Fluoro-5-[6-(3-methanesulfonyl-propoxy)-2,4-dimethyl-pyridin-3-yl]-benzyloxy}-1,1a,6,6a-tetrahydro-cyclopropa[a]indene-1-carboxylic acid] | 0.0223 µM | 0.0574 µM
6 | Cc1cc(OCCCS(C)(=O)=O)nc(C)c1-c1cccc(COc2ccc3c(c2)C[C@H]2[C@H](C(=O)O)[C@@H]32)c1C [Example 7, 4-{3-[6-(3-Methane-sulfonyl-propoxy)-2,4-dimethyl-pyridin-3-yl]-2-methyl-benzyloxy}-1,1a,6,6a-tetrahydro-cyclopropa[a]indene-1-carboxylic acid] |  | 0.098 µM
7 | Cc1cc(OCCCS(C)(=O)=O)ncc1-c1cccc(COc2ccc3c(c2)C[C@H]2[C@H](C(=O)O)[C@@H]32)c1C [Example 8, 4-{3-[6-(3-Methanesulfonyl-propoxy)-4-methyl-pyridin-3-yl]-2-methyl-benzyloxy}-1,1a,6,6a-tetrahydro-cyclopropa[a]indene-1-carboxylic acid] |  | 0.232 µM
8 | Cc1cc(OC2CCS(=O)(=O)CC2)nc(C)c1-c1ccc(F)c(COc2ccc3c(c2)C[C@H]2[C@H](C(=O)O)[C@@H]32)c1 [Example 9, 4-{5-[6-(1,1-Dioxo-hexahydro-l16-thiopyran-4-yloxy)-2,4-dimethyl-pyridin-3-yl]-2-fluoro-benzyloxy}-1,1a,6,6a-tetrahydro-cyclopropa[a]indene-1-carboxylic acid] |  | 0.099 µM
9 | Cc1cc(OC2CCS(=O)(=O)CC2)ncc1-c1ccc(F)c(COc2ccc3c(c2)C[C@H]2[C@H](C(=O)O)[C@@H]32)c1 [Example 10, 4-{5-[6-(1,1-Dioxo-hexahydro-l16-thiopyran-4-yloxy)-4-methyl-pyridin-3-yl]-2-fluoro-benzyloxy}-1,1a,6,6a-tetrahydro-cyclopropa[a]indene-1-carboxylic acid] |  | 0.0931 µM
10 | Cc1nc(NCCCS(C)(=O)=O)ccc1-c1ccc(F)c(COc2ccc3c(c2)C[C@H]2[C@H](C(=O)O)[C@@H]32)c1 [Example 11, 4-{2-Fluoro-5-[6-(3-methanesulfonyl-propylamino)-2-methyl-pyridin-3-yl]-benzyloxy}-1,1a,6,6a-tetrahydro-cyclopropa[a]indene-1-carboxylic acid] | 0.0435 µM | 0.0559 µM
11 | Cc1nc(NCCCS(C)(=O)=O)ccc1-c1cccc(COc2ccc3c(c2)C[C@H]2[C@H](C(=O)O)[C@@H]32)c1 [Example 12, 4-{3-[6-(3-Methanesulfonyl-propylamino)-2-methyl-pyridin-3-yl]-benzyloxy}-1,1a,6,6a-tetrahydro-cyclopropa[a]indene-1-carboxylic acid] |  | 0.123 µM
12 | Cc1cc(OC2CCS(=O)(=O)CC2)nc(C)c1-c1cccc(COc2ccc3c(c2)C[C@H]2[C@H](C(=O)O)[C@@H]32)c1 [Example 13, 4-{3-[6-(1,1-Dioxo-hexahydro-l16-thiopyran-4-yloxy)-2,4-dimethyl-pyridin-3-yl]-benzyloxy}-1,1a,6,6a-tetrahydro-cyclopropa[a]indene-1-carboxylic acid] |  | 0.102 µM
13 | Cc1cc(NCCCS(C)(=O)=O)ncc1-c1ccc(F)c(COc2ccc3c(c2)C[C@H]2[C@H](C(=O)O)[C@@H]32)c1 [Example 14, 4-{2-Fluoro-5-[6-(3-methanesulfonyl-propylamino)-4-methyl-pyridin-3-yl]-benzyloxy}-1,1a,6,6a-tetrahydro-cyclopropa[a]indene-1-carboxylic acid] | 0.0835 µM | 0.145 µM
14 | Cc1cc(NCCCS(C)(=O)=O)ncc1-c1cccc(COc2ccc3c(c2)C[C@H]2[C@H](C(=O)O)[C@@H]32)c1 [Example 15, 4-{3-[6-(3-Methanesulfonyl-propylamino)-4-methyl-pyridin-3-yl]-benzyloxy}-1,1a,6,6a-tetrahydro-cyclopropa[a]indene-1-carboxylic acid] |  | 0.317 µM
15 | Cc1cc(NCCCS(C)(=O)=O)ncc1-c1cccc(COc2ccc3c(c2)C[C@H]2[C@H](C(=O)O)[C@@H]32)c1C [Example 16, 4-{3-[6-(3-Methanesulfonyl-propylamino)-4-methyl-pyridin-3-yl]-2-methyl-benzyloxy}-1,1a,6,6a-tetrahydro-cyclopropa[a]indene-1-carboxylic acid] |  | 4.28 µM
16 | Cc1nc(OC2CCS(=O)(=O)CC2)ccc1-c1cccc(COc2ccc3c(c2)C[C@H]2[C@H](C(=O)O)[C@@H]32)c1C [Example 17, 4-{3-[6-(1,1-Dioxo-hexahydro-l16-thiopyran-4-yloxy)-2-methyl-pyridin-3-yl]-2-methyl-benzyloxy}-1,1a,6,6a-tetrahydro-cyclopropa[a]indene-1-carboxylic acid] |  | 0.252 µM
17 | CS(=O)(=O)CCCOc1ccc(-c2cccc(COc3ccc4c(c3)C[C@H]3[C@H](C(=O)O)[C@@H]43)c2)c(CO)n1 [Example 18, 4-{3-[2-Hydroxymethyl-6-(3-methanesulfonyl-propoxy)-pyridin-3-yl]-benzyloxy}-1,1a,6,6a-tetrahydro-cyclopropa[a]indene-1-carboxylic acid] |  | 0.206 µM
18 | Cc1cc(OCCCS(C)(=O)=O)ncc1-c1ccc(F)c(COc2ccc3c(c2)C[C@H]2[C@H](C(=O)O)[C@@H]32)c1 [Example 19, (1S,1aS,6aR)-4-[(2-fluoro-5-{4-methyl-6-[3-(methylsulfonyl)propoxy]pyridin-3-yl}benzyl)oxy]-1,1a,6,6a-tetrahydrocyclopropa[a]indene-1-carboxylic acid] |  | 0.0055 µM
19 | Cc1cc(OCCCS(C)(=O)=O)nc(C)c1-c1ccc(F)c(COc2ccc3c(c2)C[C@H]2[C@H](C(=O)O)[C@@H]32)c1F [Example 21, 4-(2,6-difluoro-3-[6-(3-methanesulfonyl-propoxy)-2,4-dimethyl-pyridin-3-yl]-benzyloxy)-1,1a,6,6a-tetrahydro-cyclopropa[a]indene-1-carboxylic acid] |  | 0.0474 µM
20 | Cc1cc(OCCCS(C)(=O)=O)ncc1-c1ccc(F)c(COc2ccc3c(c2)C[C@H]2[C@H](C(=O)O)[C@@H]32)c1F [Example 22, 4-(2,6-difluoro-3-[6-(3-methanesulfonyl-propoxy)-4-methyl-pyridin-3-yl]-benzyloxy)-1,1a,6,6a-tetrahydro-cyclopropa[a]indene-1-carboxylic acid] |  | 0.0589 µM
